Here are results for three molecules from US8163803B2 (Fundação Oswaldo Cruz—FIOCRUZ, priority 2004, dated 2012).

For series [1], the system named is isolated ileum of an experimental animal. The experiment in a line: Contraction of isolated ileum induced by histamine. To be noted: histamine (5 μM), average ±SEM, at least 3 animals; read-out: Stimulation with histamine IC50. As to the method: (§1) Female and male experimental animals were used, weighing between 300 and 400 g, they came from Oswaldo Cruz Foundation's Center of Laboratory Animal Raising. The procedures involving the animals were examined and approved by Oswaldo Cruz Foundation's Committee of Animal Ethics (CEUA-FIOCRUZ, Licenca no. 00085-02). The animals were sensitized through a subcutanous injection with a mixture of 50 μg ovoalbumin and 5 mg Al(OH)3. From fourteen to thirty days after the sensitization, the experimental, animal was sacrificed in a chamber of carbonic gas to have its abdomen open and the location of the ileocecal valve. At this point, the intestine was sectioned and a segment of the small intestine, about 20 cm (equivalent to the ileum) was carefully removed and internally washed with a warmed solution (37° C.) of Tyrode (Composition in mM) (NaCl 137; KCl 2.7; NaH2PO4 0.42; NaHCO3 11.9; MgCl2 0.5; CaCl2 1.8; glucose 5.6) to remove the fecal content. […].
(§2) About 3-cm ileum fragments were vertically mounted in 10 ml glass cuvettes, immersed in Tyrode's solution at 37° C., aerated with carbogen (O2, 95% and CO2, 5%) and supplemented with atropine according to the standard procedure. The tissue had one of its ends tied to a rod while the other end was coupled with a transductor after the transference from the rod to the cuvette. The contractions were isotonically registered (basal tension of 1 g) with the support of a transductor of displacement-force connected to a computerized system to capture data. After a 30 minute period of balance, each segment was repeatedly stimulated by histamine (1 μM) until response stabilization. To induce anaphylatic contraction, ileum segments from sensitized experimental animals were stimulated by ovoalbumin (10 μg/ml). […]. The results were presented as a percentage of inhibition calculated in relation to the contractive effect obtained from stimulated and non-treated preparations.
(§3) Concentration-response data were adjusted through non-linear regression curves with the assistence of a graphics software (GraphPad Prism, USA). The concentration of an antagonist needed to inhibit the contractive response to inhibit the contractive response after stimulation by histamine or antigen at 50% (IC50) was used to compare the anti-spasmodic potency. The values expressed as an average ± standard error of the mean and statistically analysed through the test of analysis variance (ANOVA), followed by the Newman-Keuls-Student test.

Series [2] has as its system experimental animal trachea. The series is described as follows: Relaxation of trachea pre-contracted by anaphylactic stimulation (ovoalbumin). To be noted: pre-contracted with ovoalbumin (20 μg/ml), average±SEM, at least 3 animals; read-out: IC50, concentration necessary to relax in 50% the anaphylatic spasm of trachea. How it is done:
Female and male experimental animals were used, weighing between 300 and 400 g, they came from Oswaldo Cruz Foundation's Center of Laboratory Animal Raising. The procedures involving the animals were examined and approved by Oswaldo Cruz Foundation's Committee of Animal Ethics (CEUA-FIOCRUZ, License number 00085-02). The animals were sensitized through a subcutaneous injection with a mixture of 50 μg ovoalbumin and 5 mg Al(OH)3. Fourteen to thirty days after the sensitization, the experimental animal was sacrificed in a chamber of carbonic gas to have its trachea removed. The trachea was transferred to a Petri dish containing Krebs solution (composition in mM) (NaCl-119; […] NaHCO3-25; […] The total segment was divided into fragments of about 3 to 4 rings that were sectioned at the extreme ending, the muscular part of the trachea. Each fragment had one of its ends tied to a rod while the other end was connected to an isometric transductor (U Basile, Italy) after the transference from the rod to a 10 ml glass cuvette. […] The contractions were registered with the […] of a computerized system of data capture (Letica, Spain). […] The results were shown as a percentage of relaxation in relation to the plateau of the anaphylatic pre-contraction. Concentration-response data were adjusted through non-linear regression curves with the […] of a graphics software (GraphPad Prism, USA). […] The values were expressed as an average± standard error of the mean and statistically analysed through the test of analysis variance (ANOVA), followed by the Newman-Keuls-Student test.

Series [3] has as its system cutaneous sites of the dorsal region of adult Wistar rats. The experiment in a line: Local anesthetic activity, intradermal injection in dorsal skin, response to mechanical stimulation. It is filed as in vivo. To be noted: for time of anesthesia compared with lidocaine: doses from 0.5 to 4 μMol/site. How it is done: Female and male Wistar rats, weighing between 200 and 250 g, they came from Oswaldo Cruz Foundation's Center of Laboratory Animal Raising were used. The procedures involving the animals were examined and approved by Oswaldo Cruz Foundation's Committee of Animal Ethics (CEUA-FIOCRUZ, License number 00085-02). After brief anesthesia by exposure to the atmosphere enriched with […] animals were trichotomized dorsal region, where the […] injections with substances for test were performed; doses varied from 0.5 to 4 μMol/site, and vehicule (NaCl 0.9%) (negative control), the final volume was 50 μl. Each animal took six injections and four animals were used for each tested substance. The application points were mechanically estimulated with a tweezer in order to evaluate the integrity of sensitiveness. The site was considered not to be anesthesized whenever after the mechanical stimulation it was observed a local retraction of the skin, according to what had been previously reported. The evaluations began 10 minutes after intradermal injections had been taken, which continued every five minutes until it was obtained the cutaneous retraction response. The values (average±standard error of the mean, SEM) were expressed in terms of “Time of Anesthesia” in minutes.

For series [4], the system named is isolated ileum of an experimental animal. The experiment in a line: Anaphylactic contraction of isolated ileum induced by antigen (ovoalbumin). To be noted: antigen (10 μg/ml), average ±SEM, at least 3 animals; read-out: Stimulation with antigen IC50. As to the method: as §1, §2, §3
Series [5] relates to dorsal subcutaneous tissue of rats. The experiment in a line: Anaphylactic release of histamine by fragments of dorsal subcutaneous tissue. On the set-up: species or system Wistar rats. To be noted: for IC50: 60 min pre-treatment, read-out: IC50, inhibition of histamine release caused by anaphylatic stimulus. As to the method:
Female and male Wistar rats were used, weighing between 180 and 200 g, they came from Oswaldo Cruz Foundation's Center of Laboratory Animal Raising. The procedures involving the animals were examined and approved by Oswaldo Cruz Foundation's Committee of Animal Ethics (CEUA-FIOCRUZ, Port. 00085-02). The rats were sensitized with a subcutaneous injection containing a mixture of 50 μg ovalbumina plus 5 mg Al(OH)3. Fourteen days after the sensitization the animals were sacrificed in a chamber of CO2, to have their dorsal hypodermis removed which was fragmented into smaller segments of about 3 mm in a Petri dish containing PBS. The fragments were individually transferred to a dish with 48 pools containing 500 μl of Hanks with Ca^++ and Mg^++.
Five experimental groups were studied in quadruplicates:
I. Saline group, negative control, pools where the tissue was neither treated nor stimulated;
II. Ovoalbumin group, positive control, pools where the tissue was not treated but it was stimulated by ovoalbumin (300 μg/ml);
III. JM24-1 group, pools where the tissue was previously treated with JM24-1 before the stimulation with ovoalbumin (300 μg/ml);
IV. JM25-1 group, pools where the tissue was previously treated with JM25-1 before the stimulation with ovoalbumin (300 μg/ml);
V. JMF2-1 group, pools where the tissue was previously treated with JMF2-1 before the stimulation with ovoalbumin (300 μg/ml).
Treated and non-treated pools were kept at 37° C. in a metabolic incubator (atmosphere containing 95% O2 and 5% CO2) for 60 minutes before the antigenic challenge. After the addition of ovoalbumin (300 μg/ml) all the pools were incubated again in a metabolic oven for more than 60 minutes. After removal of tissue for drying and weighing, the culture medium was collected and acidified with perchloric acid 0.4 N being, after centrifugation 150×g for 10 min. stocked at −20° C. until the moment of fluorimetric quantifying of histamine, according to the previous work. The values were shown like nanograms of released histamine by mg of tissue (dry weight).

Series [6] deals with patients. To be noted: cited from earlier work.
Series [7] has as its system Swiss 44 mice. The series is described as follows: Convulsivant activity after intraperitoneal injection. To be noted: mouse, in vivo, ip. It is filed as in vivo. As to the method: Female and male Swiss 44 mice were used, weighing between 25 and 30 g, they came from Oswaldo Cruz Foundation's Center of Laboratory Animal Raising. The procedures involving the animals were examined and approved by Oswaldo Cruz Foundation's Committee of Animal Ethics (CEUA-FIOCRUZ, Act 00085-02). […] For each molecule, the necessary dose to induce a convulsive clinical Figure in 50% of the animals (DE50) was determined by linear regressive curves interpoled (GraphPad Prim, version 3.03).

In series [8] the test system is sensitized experimental animals. The series is described as follows: Pulmonary eosinophil infiltrate after ovoalbumin aerosol challenge, bronchoalveolar lavage count. It is filed as in vivo. To be noted: 5% aerosol, 30 min, with ovoalbumin 1% plus 3 aerosolizations every 3 h; lavage 24 h after challenge.
Procedure: The animals were sensitized through a cutaneous injection of a mixture with 50 μg ovoalbumin and 5 mg Al(OH)3, and challenged with ovoalbumin (1%) aerosol for 30 min 14 days afterwards, according to what was previously described. In order to avoid death of animals by anaphylatic asphyxia, all of them were treated intraperitonially with the anti-histaminic difenidramine (30 mg/kg) 30 minutes before being challenged.
Bronchoalveolar Lavage and Eosinophils Counting
All the animals were anesthesized terminally through an intraperitonial injection of pentobarbital (200 mg/kg) 24 h after the antigenic challenge, to wash the bronchoalveolar space according to the techniques previously described. Total leukocyte count were done after dilution of bronchoalveolar lavage samples in Turk liquid and counting in the Neubauer chamber with the assistance of direct-light microscopy. The differential eosinophil count was done also under direct-light microscopy, after centrifugation of samples of the lavage as well as its exposure to specific dyestuff (May-Grunwald-Giemsa dye).
The averages± standard error of the mean of the groups investigated were analyzed based on statistics through the test of variance analysis (ANOVA), followed by the Newman-Keuls-Student test.
Values, expressed in terms of “number of eosinophils×10^6/lavage” are presented as average±SEM in at least 7 animals. In the negative control group, animals previously sensitized were artificially-challenged through exposure to sterile saline (NaCl, 0.9%) aerosol. […] “*” represents the difference statistically significant (P<0.05), when the group treated and the positive control group were compared.
In series [9] the test system is Na^+ currents in GH3 cells. The series is described as follows: Tonic block of Na+ currents in GH3 cells, whole cell patch clamp. The class given is cell-based, Rat. As to the method:
Ion channel currents were recorded by means of a patch clamp technique. The cells cultured on the cover glass were placed in a chamber fixed to a microscope stage and continuously perfused with extracellular Saline (A) solution (in mM); 150 NaCl, 5 KCl, 1 MgCl2, 0.01 CaCl2, 1 EGTA, 10 HEPES, 2 BaCl2, 0.1 CdCl2, pH 7.4 at room temperature (22-25° C.) adjusted with NaOH. The cells were observed using phase contrast mode under an inverted microscope (Axiovert 100, Carl Zeiss, Oberkochem, D Germany). Tight-seal (>10 GΩ) whole cell voltage-clamp recordings were performed with an Axopatch-1D amplifier (Axon Instruments, San Mateo, Calif.). […] Fifteen minutes after rupture of the patch membrane, we started to record ion channel currents. Pulse protocols and data acquisition were controlled by Digidata 1320 interface (Axon Instruments, Palo Alto, Calif.), and acquired on a personal computer using Clampex 9 software. The Na^+ current recordings were filtered at 1 kHz and sampled at 8 kHz. About 26% of series resistance was electronically compensated. Drugs were applied to the recording chamber by gravity. Perfusion rate was maintained at 0.8-1.1 ml/min and bath volume was of 50 μl. […] Voltage-gated Na^+ currents were recorded from these cells in the presence or absence of treatment.
For orientation: Patch clamp records ionic current or voltage across a cell membrane.

As to `CCN(CC)CC(=O)Nc1cc(C)ccc1C` [JM25-1, 2-dyethylamine-2′,5′-acetoxylidide], the IC50 in series [1] was found to be 140 ± 20 µM; in series [2], 130 ± 20 µM; in series [4], 120 ± 10 µM; in series [5] (ovoalbumin (300 μg/ml)), 8.35 µM. In series [3], the “time of anesthesia compared with lidocaine” value was “significantly inferior”. Further, the “inhibition of anaphylactic histamine release, result in words” value in series [5] (ovoalbumin (300 μg/ml)) is recorded as “concentrations comparable to that of lidocaine”.

For `CCCCOc1ccc(C(=O)CCN2CCCCC2)cc1` [dyclonine], the “attenuation of bronchospasm by histamine” value in [6] is listed as “ineffective”.

Regarding `CCN(CC)CC(=O)Nc1ccccc1C(F)(F)F` [JMF2-1, 2-dyethylamine-2-trifluormetilacetotoluidide], the IC50 was 100 ± 10 µM in series [1]; 25400 µM in [9] (GH3 cells, holding potential −80 mV to +60 mV step pulse, read-out: IC50, blockade of Na+ currents); 0.16 µM in series [5] (ovoalbumin (300 μg/ml)). The “Time of Anesthesia” value in [3] (4 μMol/site intradermal, n=4, average±SEM) came out at 28 ± 1 min. Besides, in series [3], the “time of anesthesia compared with lidocaine” value is “significantly inferior”. Besides, the “DE50, dose to induce convulsion in 50% of the animals” value in series [7] was 305 mg/kg. The “blocking the accumulation of eosinophils in the bronchoalveolar area” value in [8] is reported as “equipotent to lidocaine”. Also, the “50% inhibitory concentration, times higher than lidocaine” value in series [9] (ratio to lidocaine IC50) stood at 169 times. For the same molecule, the “times more potent than lidocaine, histamine release” value in series [5] (ratio to lidocaine) is listed as “about 29 times”.
